Molecular target: NK1 receptor (Homo sapiens, UniProt P25103)
Test: NK1 receptor binding: inhibition of Substance P binding, Ki by Chang-Prusoff equation
Details: affinity for the NK1 receptor
Source text: The in vitro and in vivo NK1, NK2 and NK3 activities of the compounds of Formula I can be determined by various procedures known in the art, such as a test for their ability to inhibit the activity of the NK1 agonist Substance P. The percent inhibition of neurokinin agonist activity is the difference between the percent of maximum specific binding (“MSB”) and 100%. The percent of MSB is defined by the following equation, wherein “dpm” represents “disintegrations per minute”:
[formula] The concentration at which the compound produces 50% inhibition of binding is then used to determine an inhibition constant (“Ki”) using the Chang-Prusoff equation.
The activities (potencies) for the compounds of the invention are determined by measuring their Ki values. […] Even more preferred are compounds having average Ki values of from 0.1 nM to about 5 nM for the NK1 receptor. Especially preferred compounds have […], average Ki values of from 0.1 nM to about 1 nM. Even more especially preferred compounds have NK1 average Ki values of from 0.1 nM to about 0.3 nM.

Sequence of NK1 receptor (P25103 whole entry, species assumed): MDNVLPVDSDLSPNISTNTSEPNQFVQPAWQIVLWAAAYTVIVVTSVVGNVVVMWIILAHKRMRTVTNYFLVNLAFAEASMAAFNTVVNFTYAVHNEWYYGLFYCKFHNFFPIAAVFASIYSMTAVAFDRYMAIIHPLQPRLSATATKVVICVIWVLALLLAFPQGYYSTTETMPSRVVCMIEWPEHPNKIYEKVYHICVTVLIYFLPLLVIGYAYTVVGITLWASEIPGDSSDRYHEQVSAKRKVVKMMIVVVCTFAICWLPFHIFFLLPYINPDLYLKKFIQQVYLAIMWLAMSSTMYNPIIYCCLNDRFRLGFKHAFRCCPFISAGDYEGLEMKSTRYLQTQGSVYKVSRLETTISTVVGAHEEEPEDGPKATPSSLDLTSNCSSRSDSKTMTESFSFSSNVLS

SMILES	Ki
C[C@@H](OC[C@@]1(c2ccccc2)CC[C@](C#N)(N2CCOC2=O)CN1)c1cc(C(F)(F)F)cc(C(F)(F)F)c1 [Compound 2]	0.12 nM
C[C@@H](OC[C@@]1(c2ccccc2)CC[C@](C#N)(N2CCC2=O)CN1)c1cc(C(F)(F)F)cc(C(F)(F)F)c1 [Compound 9]	0.18 nM
CCNC(=O)C[C@]1(n2cn[nH]c2=O)CC[C@@](CO[C@H](C)c2cc(C(F)(F)F)cc(C(F)(F)F)c2)(c2ccccc2)NC1 [Compound 16]	0.13 nM
COC[C@]1(N2CC(=O)NC2=O)CC[C@@](CO[C@H](C)c2cc(C(F)(F)F)cc(C(F)(F)F)c2)(c2ccccc2)NC1 [Compound 20]	0.11 nM
C[C@@H](OC[C@@]1(c2ccccc2)CC[C@](CO)(n2cn[nH]c2=O)CN1)c1cc(C(F)(F)F)cc(C(F)(F)F)c1 [Compound 23]	0.12 nM
C[C@@H](OC[C@@]1(c2ccccc2)CC[C@](CC(N)=O)(n2cn[nH]c2=O)CN1)c1cc(C(F)(F)F)cc(C(F)(F)F)c1 [Compound 29]	0.11 nM
CC(=O)C[C@]1(n2cn[nH]c2=O)CC[C@@](CO[C@H](C)c2cc(C(F)(F)F)cc(C(F)(F)F)c2)(c2ccccc2)NC1 [Compound 30]	0.54 nM
C[C@@H](OC[C@@]1(c2ccccc2)CC[C@](C#N)(n2cn[nH]c2=O)CN1)c1cc(C(F)(F)F)cc(C(F)(F)F)c1 [Compound 42]	0.28 nM

Now from value to molecule:

Ki	SMILES
0.1 nM	C[C@@H](OC[C@@]1(c2ccccc2)CC[C@@](C(N)=O)(n2cnnc2)CN1)c1cc(C(F)(F)F)cc(C(F)(F)F)c1 [Compound 10]
0.05 nM	C[C@@H](OC[C@@]1(c2ccccc2)CC[C@@](CO)(n2cnnc2)CN1)c1cc(C(F)(F)F)cc(C(F)(F)F)c1 [Compound 12]
0.1 nM	COC[C@@]1(n2cnnc2)CC[C@@](CO[C@H](C)c2cc(C(F)(F)F)cc(C(F)(F)F)c2)(c2ccccc2)NC1 [Compound 14]
0.1 nM	CCC(=O)[C@]1(n2cn[nH]c2=O)CC[C@@](CO[C@H](C)c2cc(C(F)(F)F)cc(C(F)(F)F)c2)(c2ccccc2)NC1 [Compound 19]
0.12 nM	C/C(=N\O)[C@]1(n2cn[nH]c2=O)CC[C@@](CO[C@H](C)c2cc(C(F)(F)F)cc(C(F)(F)F)c2)(c2ccccc2)NC1 [Compound 54]

From patent US8754216B2, “NK1 antagonists” (OPKO Health, Inc., priority 2004, dated 2014)
